Legend:
mouse erythrocytes = experiment: Red blood cell lysis assay; format: cell-based; conditions: mouse erythrocytes 1% hematocrit, 24 hours, 0.2-100× fold EC50
Source text: Materials and methods. Random-bred Swiss albino CD-1 female mice (Charles River Laboratories, Wilmington, Mass., USA) from 6-8 weeks old were used for the study. All mice procedures were approved by the Institutional Animal Care and Use Committee under the protocol number 2480108 at the AAALAC accredited University of Puerto Rico-Medical Sciences Campus Animal Resources Center. The mice work was done in strict accordance with the “Guide for the Care and Use of Laboratory Animals” (National-Research-Council, Current Edition) and regulations of the PHS Policy on Humane Care and Use of Laboratory Animals. Mice were acclimated for 1 week before initiation of experiments.
Compounds were analyzed at 10 serial dilutions using fresh mouse erythrocytes at 1% hematocrit in Dulbecco's PBS (Gibco®) in V-bottom microplates (Corning® 96 well TC-treated microplate). The plates were incubated for 24 hours at 37° C. followed by centrifugation at 2,000 rpm for 5 min, and 50 μl of supernatant was transferred to a fresh flat-bottom microplate (BD Falcon®). The amount of hemoglobin release in the supernatant was determined using the QuantiChrom™ Hemoglobin Assay Kit (DIHB-250; BioAssay Systems) by measuring the absorbance at 400 nm following the manufacturer's instructions. Saponin at 100 μg/ml was used as a positive control for 100% cell lysis, blood (1% hematocrit) with Dulbecco's Phosphate-Buffered Saline (DPBS) as a negative control for no cell lysis, and DPBS as a blank. Compounds were tested in three independent experiments in triplicate each.

human placenta GST = molecular target: T1, human placenta GST (Homo sapiens, UniProt P09211); experiment: GST inhibition, human placenta GST; format: biochemical; conditions: human placenta GST, 0, 1, 10, and 50 μM
T1 construct: from tissue; host or cells: human placenta
T1 sequence (P09211 2-210 limits assumed): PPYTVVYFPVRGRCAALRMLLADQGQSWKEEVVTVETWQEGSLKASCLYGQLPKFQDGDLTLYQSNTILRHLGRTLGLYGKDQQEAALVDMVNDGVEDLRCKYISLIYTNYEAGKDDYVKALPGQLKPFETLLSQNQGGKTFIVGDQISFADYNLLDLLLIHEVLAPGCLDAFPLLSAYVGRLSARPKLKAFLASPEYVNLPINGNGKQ

[1] = tested on: P. falciparum multidrug-resistant Dd2 clone B2; experiment: In vitro susceptibility of P. falciparum, flow cytometry after 72 hours; format: cell-based, Plasmodium falciparum; conditions: P. falciparum Dd2 clone B2, 72 hours; read-out: EC50 (parasite growth)
Description: After 72 hours, parasite growth was assessed using flow cytometry on an Accuri C6 cytometer with parasites stained with SYBR green I and MitoTracker Deep Red. Compound CB-27 was tested in six independent experiments with technical replicates. The percentage of parasite growth was curve fitted against log-transformed drug concentrations and the EC50 was calculated using GraphPad Prism 6 software.

PbGST = experiment: GST inhibition (CDNB/GSH) in crude P. berghei protein extract; format: biochemical, Plasmodium berghei; conditions: crude P. berghei protein extract, 0, 1, 10, and 50 μM
Description: Materials and methods. […] Parasite extracts were prepared and the pellets containing proteins were resuspended in buffer (3.5 mM MgCl2, 110 mM KCl, 40 mM NaCl, 20 mM HEPES, 6 mM EDTA, pH 7.4) with protease inhibitors (0.01 mg of leupeptin A, 0.001 mg of pepstatin A, 0.35 mg of PMSF). The parasite pellets were lysed by three freeze/thaw cycles (liquid nitrogen and 37° C. water bath) and protein content was determined using Bio-Rad DC Protein Assay. […] . The reaction was initiated by the addition of 1 mM GSH and the formation of S-(2,4-dinitrophenyl)glutathione was monitored spectrophotometrically at 340 nm (ε340 nm=0.0096 μM^−1cm^−1) using the SpectraMax M3 Microplate Reader (Molecular Devices).

Row | SMILES | hemolysis (lytic activity) (mouse erythrocytes) | inhibition of human GST activity (human placenta GST) | EC50 [1] [µM] | inhibition of PbGST activity (PbGST)
1 | COc1cccc(/C=N/NC(=O)c2nc(-c3ccccc3)cc(-c3ccccc3)n2)c1O [CB-41] | did not hemolyze erythrocytes | – | – | –
2 | O=C(N/N=C/c1cc(Br)ccc1O)/C(=C/C=C/c1ccccc1)NC(=O)c1ccccc1 [CB-50] | did not hemolyze erythrocytes | – | – | –
3 | O=C(Nc1cc(Cl)ccc1O)c1cc2nc(-c3ccccc3)cc(-c3ccccc3)n2n1 [CB-59] | did not hemolyze erythrocytes | – | – | –
4 | O=C(N/N=C/c1ccccc1O)c1cc(-c2ccccc2)nc2ccccc12 [CB-53] | did not hemolyze erythrocytes | – | – | –
5 | O=C(NN=Cc1c(O)ccc2ccccc12)c1nc(-c2ccccc2)cc(-c2ccccc2)n1 [CB-27] | did not hemolyze erythrocytes | does not inhibit | 0.958 | concentration-dependent inhibition
6 | O=C(N/N=C/c1c(O)ccc2ccccc12)c1cc([N+](=O)[O-])cc([N+](=O)[O-])c1 [CB-61] | did not hemolyze erythrocytes | – | – | –
7 | COc1cccc(C=NNC(=O)c2cc(-c3ccccc3)nc3ccccc23)c1O [CB-58] | did not hemolyze erythrocytes | – | – | –

From US20230167071A1, “COMPOUNDS WITH ANTIMALARIAL ACTIVITY” (UNIVERSITY OF PUERTO RICO, priority 2019, published 2023)
